Structures can show the parent of a compound that is named as a salt. Where two headings read alike, the source gives them in different places.
Columns and labels:
PDGFRα = PDGFRα (Homo sapiens (Human), UniProt P16234); assay: PDGFRα kinase enzyme assay (Promega PDGFRα Kinase Enzyme System, ADP-Glo); type: biochemical; conditions: 150 uM ATP
Method in brief: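 Read-out was ADP-Glo: remaining ATP depleted, ADP converted to luminescence and compared with a standard curve.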

[1] = test system: Oligodendrocyte progenitor cells (OPCs); assay: In vitro OPC differentiation assay, MBP expression (immunocytochemistry); conditions: 72 hours of treatment; fold change over vehicle
Method: Cortices from postnatal day (P) 1-3 rats were dissected and collected into ice cold Hank's Balanced Salt Solution (HBSS). […] Briefly, the cortical cell suspension was centrifuged and washed with buffer (0.5% BSA in PBS) and labeled with Anti-A2B5 MicroBeads (10 μL beads per 1×10^7 cells) for 15 minutes at 4° C. Following the incubation, cells were washed once with BSA buffer to remove unlabeled beads. A2B^5 positive cells were eluted on the column using the AutoMACS® (Miltenyi, as per manufacturer's protocol using “possel-s” program). Eluted cells were further washed twice with OPC growth media. Cell count was performed using Countess III cell counter (ThermoFisher; AMQAX2000) and cells were plated.
A2B5+ OPCs were plated in poly-d-lysine (PDL) coated T75 flask at a density of ˜3 million cells per flask. […] TrypLE was normalized by adding 10 mL growth media and cells were centrifuged at 1400 rpm for 10 minutes. […] The plates were allowed to sit at room temperature for 15 minutes to ensure proper dispersion of cells in a well. The plates were then transferred to the incubator (37° C.; 5% CO2).
Cells were then incubated for 72 hours at 37° C., 5% CO2 before immunostaining for MBP marker expression.
Following 72 hours of treatment, cells were fixed with 4% paraformaldehyde for 15 minutes then washed three times in DPBS. Prior to staining, cells were blocked for 15 minutes in 10% normal goat serum containing 1% BSA and 0.1% Triton X-100 in DPBS. Primary antibody (MBP @ 1:2000; Abcam AB7349) was applied to cells overnight at 4° C. in incubation solution containing 1% normal goat serum, 1% BSA, and 0.1% Triton X-100 in DPBS.
The number of differentiated MBP+ cells was normalized to the total nuclei count and percent differentiated MBP+ cells were reported.

[2] = test system: Oligodendrocyte progenitor cells (OPCs); assay: In vitro OPC differentiation assay, GPR17 expression (immunocytochemistry); conditions: 72 hours; for GPR17 Fold Induction (Over Vehicle; 3 μM): 3 μM (10× concentration, final 0.3 μM)
[3] = test system: GPR17+ cells (newly differentiated oligodendrocytes); assay: In vivo OPC differentiation, GPR17+ cells in brain; conditions: for In vivo GPR17+ cells, GPR17 Fold Induction (Over Vehicle): adult female C57BL/6 mice, PO or IP, treatment period 1-3 days, entire brain, fold change over vehicle treated animals
[4] = 11-point dose response, 10,000 nM to 0.169 nM, BLQ = below limit of quantitation, read-out: IC50 Values on PDGFRα Kinase Inhibition, IC50
[5] = 5 μM (10× concentration, final 0.5 μM), fold change over vehicle
[6] = Mus musculus, po, 24 h, read-out: GPR17 Fold Induction (Over Vehicle)
[7] = 20 ng purified PDGFRα, Poly (Glu4Tyr1) substrate, two hours, 11-point dose response, read-out: IC50 Values on PDGFRα Kinase Inhibition
[8] = primary rat OPCs, 5 μM (10x; final 0.5 μM per method), percent GPR17+ cells as fold change over vehicle

Sequence of PDGFRα (P16234 24-1089): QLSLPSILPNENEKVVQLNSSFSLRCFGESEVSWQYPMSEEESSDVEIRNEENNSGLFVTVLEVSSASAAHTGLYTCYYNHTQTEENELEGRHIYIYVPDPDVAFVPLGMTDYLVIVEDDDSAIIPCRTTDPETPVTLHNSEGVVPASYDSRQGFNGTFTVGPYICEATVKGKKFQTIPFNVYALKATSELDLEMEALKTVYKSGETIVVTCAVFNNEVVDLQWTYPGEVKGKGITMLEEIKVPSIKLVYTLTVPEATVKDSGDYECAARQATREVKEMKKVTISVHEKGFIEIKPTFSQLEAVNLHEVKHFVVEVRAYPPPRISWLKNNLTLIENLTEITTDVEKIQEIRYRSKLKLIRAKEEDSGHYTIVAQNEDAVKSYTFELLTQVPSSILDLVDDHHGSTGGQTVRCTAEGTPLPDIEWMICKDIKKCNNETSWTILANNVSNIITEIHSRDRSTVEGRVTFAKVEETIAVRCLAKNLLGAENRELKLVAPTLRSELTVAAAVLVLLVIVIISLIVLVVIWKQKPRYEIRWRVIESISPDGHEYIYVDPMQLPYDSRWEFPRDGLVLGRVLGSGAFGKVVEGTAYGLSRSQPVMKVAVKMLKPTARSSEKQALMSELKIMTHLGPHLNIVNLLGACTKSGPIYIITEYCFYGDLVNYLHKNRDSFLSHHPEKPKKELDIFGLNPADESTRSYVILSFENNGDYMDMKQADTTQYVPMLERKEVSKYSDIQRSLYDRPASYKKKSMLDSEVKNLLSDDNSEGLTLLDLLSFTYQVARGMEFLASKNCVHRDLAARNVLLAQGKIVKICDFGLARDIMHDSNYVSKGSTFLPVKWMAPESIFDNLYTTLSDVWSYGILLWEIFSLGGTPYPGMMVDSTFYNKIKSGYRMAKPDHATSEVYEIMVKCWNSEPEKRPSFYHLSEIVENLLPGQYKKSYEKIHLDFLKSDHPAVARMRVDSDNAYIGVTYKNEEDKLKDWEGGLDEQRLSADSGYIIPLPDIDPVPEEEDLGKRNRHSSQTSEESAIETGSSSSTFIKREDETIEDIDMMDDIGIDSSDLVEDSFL

Cn1cc(-c2ccc3c(N4CCN(c5ncc(C(O)c6ccccc6)o5)CC4)cnn3c2)cn1 (centres unmarked) [Compound 248, (2-(4-(6-(1-methyl-1H-pyrazol-4-yl)pyrazolo[1,5-a]pyridin-3-yl)piperazin-1-yl)oxazol-5-yl)(phenyl)methanol]
IC50 (PDGFRα; [4]): 1190 nM
MBP Fold Induction (Over vehicle) [1]: 16.04
GPR17 Fold Induction (Over Vehicle; 3 μM) ([2]; fold change over vehicle): 3.90

COC(c1ccc(F)cc1)c1cnc(N2CCN(c3cnn4cc(-c5cnn(C)c5)ccc34)CC2)nc1 (centres unmarked) [Compound 263, 3-(4-(5-((4-fluorophenyl)(methoxy)methyl)pyrimidin-2-yl)piperazin-1-yl)-6-(1-methyl-1H-pyrazol-4-yl)pyrazolo[1,5-a]pyridine]
IC50 (PDGFRα; [4]): 517 nM
MBP Fold Induction (Over vehicle) [1]: 12.61
GPR17 Fold Induction (Over Vehicle; 3 μM) ([2]; fold change over vehicle): 5.98

3-[4-(5-benzylpyrimidin-2-yl)piperazin-1-yl]-7-(1-methyl-1H-pyrazol-4-yl)imidazo[1,2-b]pyridazine [Compound 52]
IC50 (PDGFRα; [4]): 1950 nM
MBP Fold Induction (Over vehicle) [1]: 2.66
GPR17 Fold Induction (Over Vehicle; 3 μM) ([2]; fold change over vehicle): 9.09
GPR17 Fold Induction (Over Vehicle; 5 μM) [2, 5]: 5.41

Cn1cc(-c2ccc3c(N4CCC(c5ncc(Cc6ccccc6)cn5)C4)cnn3c2)cn1 (centres unmarked) [Compound 36, 3-[3-(5-benzylpyrimidin-2-yl)pyrrolidin-1-yl]-6-(1-methyl-1H-pyrazol-4-yl)pyrazolo[1,5-a]pyridine]
IC50 (PDGFRα; [4]): 685 nM
MBP Fold Induction (Over vehicle) [1]: 1.92
GPR17 Fold Induction (Over Vehicle; 3 μM) ([2]; fold change over vehicle): 7.08
GPR17 Fold Induction (Over Vehicle; 5 μM) [2, 5]: 5.22

C[C@@H](OC(=O)N1CCN(c2cnn3cc(-c4cnn(C)c4)ccc23)CC1)c1ccccc1 [Compound 33, (R)-1-phenylethyl 4-(6-(1-methyl-1H-pyrazol-4-yl)pyrazolo[1,5-a]pyridin-3-yl)piperazine-1-carboxylate]
IC50 (PDGFRα; [4]): 7.17 nM
MBP Fold Induction (Over vehicle) [1]: 2.44
GPR17 Fold Induction (Over Vehicle; 3 μM) ([2]; fold change over vehicle): 13.76
GPR17 Fold Induction (Over Vehicle; 5 μM) [2, 5]: 7.14

Cn1cc(-c2ccc3c(N4CCN(c5ccc(Cc6ccccc6)cc5)CC4)cnn3c2)cn1 [Compound 150, 3-(4-(4-benzylphenyl)piperazin-1-yl)-6-(1-methyl-1H-pyrazol-4-yl)pyrazolo[1,5-a]pyridine]
IC50 (PDGFRα; [4]): 1140 nM
MBP Fold Induction (Over vehicle) [1]: 2.93
GPR17 Fold Induction (Over Vehicle; 3 μM) ([2]; fold change over vehicle): 4.10

Cn1cc(-c2cnc3c(N4CCN(c5ncc(C(O)c6ccc(F)cc6)cn5)CC4)cnn3c2)cn1 (centres unmarked) [Compound 74, (4-Fluorophenyl)(2-{4-[6-(1-methyl-1H-pyrazol-4-yl)pyrazolo[1,5-a]pyrimidin-3-yl]piperazin-1-yl}pyrimidin-5-yl)methanol]
IC50 (PDGFRα; [4]): 563 nM
MBP Fold Induction (Over vehicle) [1]: 5.83
GPR17 Fold Induction (Over Vehicle; 3 μM) ([2]; fold change over vehicle): 7.19

Cn1cc(-c2ccc3c(N4CCN(C(=O)OCCC5CCOCC5)CC4)cnn3c2)cn1 [Compound 15, 2-(tetrahydro-2H-pyran-4-yl)ethyl 4-[6-(1-methyl-1H-pyrazol-4-yl)pyrazolo[1,5-a]pyridin-3-yl]piperazine-1-carboxylate]
IC50 (PDGFRα; [4]): 1410 nM
MBP Fold Induction (Over vehicle) [1]: 1.97
GPR17 Fold Induction (Over Vehicle; 3 μM) ([2]; fold change over vehicle): 6.37
GPR17 Fold Induction (Over Vehicle; 5 μM) [2, 5]: 3.98

Cn1cc(-c2ccc3c(N4CCN(c5ncc(Cc6c[nH]c7ccccc67)cn5)CC4)cnn3c2)cn1 [Compound 173, 3-[(2-{4-[6-(1-methylpyrazol-4-yl)pyrazolo[1,5-a]pyridin-3-yl]piperazin-1-yl}pyrimidin-5-yl)methyl]-1H-indole]
IC50 (PDGFRα; [4]): 1100 nM
MBP Fold Induction (Over vehicle) [1]: 0.49
GPR17 Fold Induction (Over Vehicle; 3 μM) ([2]; fold change over vehicle): 6.75

C=C(c1ccc(F)cc1)c1cnc(N2CCN(c3cnn4cc(-c5cnn(C)c5)ccc34)CC2)nc1 [Compound 256, 3-(4-(5-(1-(4-fluorophenyl)vinyl)pyrimidin-2-yl)piperazin-1-yl)-6-(1-methyl-1H-pyrazol-4-yl)pyrazolo[1,5-a]pyridine]
IC50 (PDGFRα; [4]): 3200 nM
MBP Fold Induction (Over vehicle) [1]: 8.70
GPR17 Fold Induction (Over Vehicle; 3 μM) ([2]; fold change over vehicle): 4.15

Cn1cc(-c2cn3ncc(N4CCN(C(=O)OC(C)(C)C)CC4)c3cn2)cn1 [Compound 44, Tert-butyl 4-[6-(1-methyl-1H-pyrazol-4-yl)pyrazolo[1,5-a]pyrazin-3-yl)piperazine-1-carboxylate]
IC50 (PDGFRα; [4]): 638 nM
MBP Fold Induction (Over vehicle) [1]: 1.75
GPR17 Fold Induction (Over Vehicle; 3 μM) ([2]; fold change over vehicle): 4.28
GPR17 Fold Induction (Over Vehicle; 5 μM) [2, 5]: 3.74

Cn1cc(-c2ccc3c(N4CCCN(c5ncc(Cc6ccccc6)cn5)CC4)cnn3c2)cn1 [Compound 37, 3-[4-(5-benzylpyrimidin-2-yl)-1,4-diazepan-1-yl]-6-(1-methyl-1H-pyrazol-4-yl)pyrazolo[1,5-a]pyridine]
IC50 (PDGFRα; [4]): 673 nM
MBP Fold Induction (Over vehicle) [1]: 2.95
GPR17 Fold Induction (Over Vehicle; 3 μM) ([2]; fold change over vehicle): 5.81
GPR17 Fold Induction (Over Vehicle; 5 μM) [2, 5]: 7.65

C[C@@H](OC(=O)N1CCN(c2cnc3cc(-c4cnn(C)c4)cnn23)CC1)c1ccc(C(F)(F)F)cc1 [Compound 283, (R)-1-(4-(trifluoromethyl)phenyl)ethyl 4-(7-(1-methyl-1H-pyrazol-4-yl)imidazo[1,2-b]pyridazin-3-yl)piperazine-1-carboxylate]
fold induction at 3 mg/kg [3, 6]: 6.8
IC50 Values on PDGFRα Kinase Inhibition, IC50 (nM) (PDGFRα; 11-point dose response, 10,000 nM to 0.169 nM, BLQ = below limit of quantitation): BLQ
GPR17 Fold Induction (Over Vehicle; 3 μM) ([2]; fold change over vehicle): 5.90

Cn1cc(-c2ccc3c(N4CCN(c5ncc(C(O)Cc6ccccc6)cn5)CC4)cnn3c2)cn1 (centres unmarked) [Compound 167, 1-(2-{4-[6-(1-methyl-1H-pyrazol-4-yl)pyrazolo[1,5-a]pyridin-3-yl]piperazin-1-yl}pyrimidin-5-yl)-2-phenylethanol]
MBP Fold Induction (Over vehicle) [1]: 16.83
GPR17 Fold Induction (Over Vehicle; 3 μM) ([2]; fold change over vehicle): 7.07

C[C@@H](OC(=O)N1CCN(c2cnn3cc(-c4cnn(C)c4)ccc23)CC1)c1ccc(Cl)cc1Cl [Compound 270, (1R)-1-(2,4-dichlorophenyl)ethyl 4-[6-(1-methyl-1H-pyrazol-4-yl)pyrazolo[1,5-a]pyridin-3-yl]piperazine-1-carboxylate]
fold induction at 3 mg/kg [3, 6]: 1.92
IC50 (PDGFRα; [4]): 158 nM
GPR17 Fold Induction (Over Vehicle; 3 μM) ([2]; fold change over vehicle): 7.71

Cc1ccc(C(C)OC(=O)N2CCN(c3cnn4cc(-c5cnn(C)c5)ccc34)CC2)nc1 (centres unmarked) [Compound 261, 1-(5-methylpyridin-2-yl)ethyl 4-[6-(1-methyl-1H-pyrazol-4-yl)pyrazolo[1,5-a]pyridin-3-yl]piperazine-1-carboxylate]
fold induction at 3 mg/kg [3, 6]: 3.71
IC50 (PDGFRα; [4]): 17.1 nM
GPR17 Fold Induction (Over Vehicle; 3 μM) ([2]; fold change over vehicle): 5.04

Cn1cc(-c2ccc3c(C4CCN(c5ncc(Cc6ccccc6)cn5)CC4)cnn3c2)cn1 [Compound 63, 3-[1-(5-benzylpyrimidin-2-yl)piperidin-4-yl]-6-(1-methyl-1H-pyrazol-4-yl)pyrazolo[1,5-a]pyridine]
fold induction at 3 mg/kg [3, 6]: 1.83
IC50 (PDGFRα; [4]): 1100 nM
GPR17 Fold Induction (Over Vehicle; 3 μM) ([2]; fold change over vehicle): 8.97

COc1cc2c(Oc3ccc4[nH]c(C)cc4c3F)ccnc2cc1OCC1(N)CC1 [Anlotinib HCl, anlotinib HCl, reference compound]
In vivo GPR17+ cells, GPR17 Fold Induction (Over Vehicle) [3]: 17.89
IC50 (PDGFRα; [7]): 1360 nM
GPR17 Fold Induction (Over Vehicle; 5 μM) [2, 8]: 6.58

Nc1nc(Nc2ccc3c(c2)CC[C@@H](N2CCCC2)CC3)nn1-c1cc2c(nn1)-c1ccccc1CCC2 [Bemcentinib, bemcentinib, reference compound]
In vivo GPR17+ cells, GPR17 Fold Induction (Over Vehicle) [3]: 1.09
IC50 (PDGFRα; [7]): 428 nM
GPR17 Fold Induction (Over Vehicle; 5 μM) [2, 8]: 2.99

Cn1cc(-c2ccc3c(N4CCC(c5ncc(Cc6ccccc6)cn5)CC4)cnn3c2)cn1 [Compound 148, 3-(4-(5-benzylpyrimidin-2-yl)piperidin-1-yl)-6-(1-methyl-1H-pyrazol-4-yl)pyrazolo[1,5-a]pyridine]
fold induction at 3 mg/kg [3, 6]: 1.22
IC50 (PDGFRα; [4]): 8160 nM
GPR17 Fold Induction (Over Vehicle; 3 μM) ([2]; fold change over vehicle): 7.82

Cn1cc(-c2ccc3c(N4CCN(C(=O)CC(C)(C)C)CC4)cnn3c2)cn1 [Compound 17, 3-[4-(3,3-dimethylbutanoyl)piperazin-1-yl]-6-(1-methyl-1H-pyrazol-4-yl)pyrazolo[1,5-a]pyridine]
fold induction at 3.3 mg/kg [3, 6]: 1.14
IC50 (PDGFRα; [4]): 1600 nM
GPR17 Fold Induction (Over Vehicle; 3 μM) ([2]; fold change over vehicle): 1.14

Cn1cc(-c2cnc3c(N4CCN(C(=O)OC(C)(C)C)CC4)cnn3c2)cn1 [Compound 2, tert-butyl 4-[6-(1-methyl-1H-pyrazol-4-yl)pyrazolo[1,5-a]pyrimidin-3-yl]piperazine-1-carboxylate]
fold induction at 3.3 mg/kg [3, 6]: 1.13
IC50 (PDGFRα; [4]): 1460 nM
GPR17 Fold Induction (Over Vehicle; 3 μM) ([2]; fold change over vehicle): 1.46

Cn1cc(-c2ccc3c(N4CCN(S(=O)(=O)N5CCCCC5)CC4)cnn3c2)cn1 [Compound 157, 6-(1-methyl-1H-pyrazol-4-yl)-3-(4-(piperidin-1-ylsulfonyl)piperazin-1-yl)pyrazolo[1,5-a]pyridine]
fold induction at 30 mg/kg [3, 6]: 1.91
IC50 (PDGFRα; [4]): 2100 nM
GPR17 Fold Induction (Over Vehicle; 3 μM) ([2]; fold change over vehicle): 2.80

Cc1ccc(C(C)OC(=O)N2CCN(c3cnn4cc(-c5cnn(C)c5)ccc34)CC2)cn1 (centres unmarked) [Compound 317, 1-(6-methylpyridin-3-yl)ethyl 4-[6-(1-methyl-1H-pyrazol-4-yl)pyrazolo[1,5-a]pyridin-3-yl]piperazine-1-carboxylate]
fold induction at 3 mg/kg [3, 6]: 2.97
IC50 (PDGFRα; [4]): 17.3 nM
GPR17 Fold Induction (Over Vehicle; 3 μM) ([2]; fold change over vehicle): 12.64

— US20250129067A1 (Progentos Therapeutics, Inc., priority 2021, published 2025)
